From patent US20050250821A1, “Quaternary ammonium compounds in the treatment of water and as antimicrobial wash” (priority 2004, published 2005)
≈ marks a conversion by molar mass, not a printed value.

Key:
[1] = system: Salmonella Enteritidis (ATCC 13076); test: microbe, parasite or virus in culture; details: Salmonella enterica, ATCC13076|ENTERITIDIS, 24 h, read-out: Minimum Inhibitory Concentration (MIC)
Description: A Petroff Hausser counting chamber was used to determine the level of inoculum.
An Optimax microtiter plate reader (Molecular Devices, Sunnyvale, Calif.) at 405 nm wavelength was used to measure the optical density of the suspension in each well. Plates were read kinetically over 24 h. The temperature was maintained at 35° C. All results reflect the average optical density measurements of four microtiter wells. […] A 100 μl aliquot of test organism and a 100 μl aliquot of experimental treatment were dispensed into individual microtiter plate wells.

[2] = system: Salmonella Enteritidis (ATCC 13076); test: Microtiter plate assay, CPC and acetic acid (Experiment 4); format: cell-based; details: S. Enteritidis, acetic acid treatment alone
Description: Test inocula were prepared to achieve a 10^6 cfu/ml suspension of bacterial cells. A Petroff Hausser counting chamber was used to determine the level of inoculum.
(§1) An Optimax microtiter plate reader (Molecular Devices, Sunnyvale, Calif.) at 405 nm wavelength was used to measure the optical density of the suspension in each well. Plates were read kinetically over 24 h. The temperature was maintained at 35° C. All results reflect the average optical density measurements of four microtiter wells. Treatments were prepared in sterile RO at the inclusion levels noted in Table 1. A 100 μl aliquot of test organism and a 100 μl aliquot of experimental treatment were dispensed into individual microtiter plate wells. […] Positive controls consisting of 100 μl of test organism in NB and 100 μl of sterile water and a negative control consisting of 100 μl of NB (no organisms) and 100 μl of sterile water were also used.

[3] = system: E. coli O157:H7 (ATCC 35150); test: Microtiter plate assay, CPC and propionic acid, abbreviated 4×4 matrix (Experiment 2); format: cell-based
Description: (§2) The 4×4 matrix was either used in its entirety or in an abbreviated format as deemed appropriate by previous research conducted with similar organisms using a mixed organic acid blend.
(§3) Fifteen formulations were prepared using the incomplete 4×4 matrix design in Table 3.
(§4) Four test organisms—Salmonella Enteritidis (ATCC 13076), Staphylococcus aureus (ATCC 25923) E. coli O157:H7 (ATCC 35150) and Listeria monocytogenes (ATCC 15313)—were selected for use in these screening assays. […] Propionic acid was obtained from Kemin Americas, Inc (Des Moines, Iowa). S. Enteriditis, S. aureus and E. coli were grown aerobically in either Tryptic Soy Broth (TSB) or Nutrient Broth (NB) for 24 h at 37° C. L. monocytogenes was grown aerobically in Brain Heart Infusion Broth (BHI) for 24 h at 37° C. Test inocula were prepared to achieve a 10^6 cfu/ml suspension of bacterial cells. A Petroff Hausser counting chamber was used to determine the level of inoculum.
as §1, with “noted in Tables 1-2. A 100” for “noted in Table 1. A 100”, “in NB or BHI and 100” for “in NB and 100”

[4] = system: Salmonella Enteritidis (ATCC 13076); test: Microtiter plate assay, CPC and propionic acid, 3×3 matrix (Experiment 2); format: cell-based; details: propionic acid alone, previous experimentation
Description: as §2
Eight formulations were prepared using the incomplete 3×3 matrix design in Table 2. […] Positive and negative controls were included as described in Experiment 1.
Propionic acid was obtained from Kemin Americas, Inc (Des Moines, Iowa). S. Enteriditis, S. aureus and E. coli were grown aerobically in either Tryptic Soy Broth (TSB) or Nutrient Broth (NB) for 24 h at 37° C. L. monocytogenes was grown aerobically in Brain Heart Infusion Broth (BHI) for 24 h at 37° C.
Plates were read kinetically over 24 h. The temperature was maintained at 35° C. […] Treatments were prepared in sterile RO at the inclusion levels noted in Tables 1-2.

[5] = system: Staphylococcus aureus (ATCC 25923); test: Microtiter plate assay, CPC and propionic acid, 4×4 matrix (Experiment 2); format: cell-based; details: S. aureus
Description: as §2, §3, §4
An Optimax microtiter plate reader (Molecular Devices, Sunnyvale, Calif.) at 405 nm wavelength was used to measure the optical density of the suspension in each well. Plates were read kinetically over 24 h. The temperature was maintained at 35° C. All results reflect the average optical density measurements of four microtiter wells. Treatments were prepared in sterile RO at the inclusion levels noted in Tables 1-2. […]

[6] = system: Listeria monocytogenes (ATCC 15313); test: Microtiter plate assay, CPC and propionic acid, abbreviated 4×4 matrix (Experiment 2); format: cell-based; details: L. monocytogenes
Description: as §2, §3, §4
as §1, with “noted in Tables 1-2. A 100” for “noted in Table 1. A 100”, “in NB or BHI and 100” for “in NB and 100”

[7] = system: E. coli O157:H7 (ATCC 35150); test: Microtiter plate assay, CPC and mixed organic acids (Experiment 3); format: cell-based
Description: (§5) Fifteen formulations were prepared using the incomplete 4×4 matrix design in Table 8.
(§6) Two test organisms—Salmonella Enteritidis (ATCC 13076) and E. coli O157:H7 (ATCC 35150)—were screened. Salmonella Enteritidis was grown aerobically in Nutrient Broth (NB) for 24 h at 37° C. E. coli was grown in NB for 6 h at 37° C. Test inocula were prepared to achieve a 10^6 cfu/ml suspension of bacterial cells. A Petroff Hausser counting chamber was used to determine the level of inoculum.
(§7) An Optimax microtiter plate reader (Molecular Devices, Sunnyvale, Calif.) at 405 nm wavelength was used to measure the optical density of the suspension in each well. Plates were read kinetically over 24 h. The temperature was maintained at 35° C. All results reflect the average optical density measurements of four microtiter wells. Treatments were prepared in sterile RO at the inclusion levels noted in Table 1. A 100 μl aliquot of test organism and a 100 μl aliquot of experimental treatment were dispensed into individual microtiter plate wells. Bacteria cultures were diluted in Nutrient Broth (NB) prior to inoculation into the wells. Positive controls consisting of 100 μl of test organism in NB and 100 μl of sterile water and a negative control consisting of 100 μl of NB (no organisms) and 100 μl of sterile water were also used.

[8] = system: Salmonella Enteritidis (ATCC 13076); test: as above; format: cell-based
Description: as §5, §6, §7

## C=O [37% formaldehyde, formaldehyde]
[1]
  MIC: ~50 µg/mL (≈ 1670 µM)

## CC(=O)O [acetic acid]
[2]
  concentration that completely inhibited growth: 250 ppm

## CCC(=O)O [propionic acid]
[3]; E. coli, propionic acid treatment alone
  concentration that completely inhibited growth: 250 ppm
[4]
  concentration sufficient to inhibit growth: 250 ppm
[5]; propionic acid alone, previous experimentation
  concentration shown to inhibit growth: 250 ppm

## CCCCCCCCCCCCCCCC[n+]1ccccc1 [CPC, Cetylpyridinium chloride]
[3]; E. coli O157:H7
  propionic acid substituted by 1 ppm CPC: 50 ppm
[6]
  propionic acid substituted by 1 ppm CPC: > 200 ppm
[5]
  propionic acid substituted by 1 ppm CPC: approximately 200 ppm
[7]
  mixed organic acids substituted by 1 ppm CPC: 50 ppm
[8]
  mixed acids substituted by 1 ppm CPC: 50 ppm
